According to PubChem BioAssay AID248 (DTP/NCI, 2004):
“And” between values parts separate entries of the source, which are not always exact repeats. Equal entries are not always repeated. Toxic doses and inconclusive results are not listed.

Test system: L1210 leukemia ip in BDF1 mice, survival T/C
Experiment: NCI In Vivo Anticancer Drug Screen. Data for tumor model L1210 Leukemia (intraperitoneal) in B6D2F1 (BDF1) mice
Conditions: endpoint: mean survival time, higher = longer survival
How it was run: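 Mice bearing the transplanted tumor received compound or vehicle. Survival of the treated group was divided by that of the vehicle-treated control group to give the ratio.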

[1] = dose: 100.0 mg/kg/injection, schedule: Q04DX002 (ip), vehicle: Klucel (hydroxypropylcellulose) (HPC)

With O=C1c2ccccc2-c2ccccc2C12N=Nc1ccccc12 (stereo not given) the T/C (dose: 25.0 mg/kg/injection, schedule: Q04DX002 (ip), vehicle: Klucel (hydroxypropylcellulose) (HPC)) was 101 % of control, the T/C (dose: 50.0 mg/kg/injection, schedule: Q04DX002 (ip), vehicle: Klucel (hydroxypropylcellulose) (HPC)) was 97 % of control and the T/C [1] was 101 % of control.
In the case of CC(C)(C)OOC(=O)CCCl, the T/C (dose: 100.0 mg/kg/injection, schedule: Q04DX002 (ip), vehicle: saline with Tween-80) was 93 % of control, the T/C (dose: 200.0 mg/kg/injection, schedule: Q04DX002 (ip), vehicle: saline with Tween-80) was 101 % of control and the T/C (dose: 400.0 mg/kg/injection, schedule: Q04DX002 (ip), vehicle: saline with Tween-80) was 101 % of control.
CCOP(=O)(OCC)Oc1c(Cl)c(Cl)c(Cl)c(Cl)c1Cl was tested, and the T/C [1] was 104 % of control, the T/C (dose: 200.0 mg/kg/injection, schedule: Q04DX002 (ip), vehicle: Klucel (hydroxypropylcellulose) (HPC)) was 100 % of control and the T/C (dose: 400.0 mg/kg/injection, schedule: Q04DX002 (ip), vehicle: Klucel (hydroxypropylcellulose) (HPC)) was 107 % of control.
CCOC(=O)/C=C(\C)N(C(=O)N(CCCl)N=O)c1ccccc1 was tested, and the T/C (dose: 0.12 mg/kg/injection, schedule: Q01DX009 (ip), vehicle: Klucel (hydroxypropylcellulose) (HPC)) was 118 % of control, the T/C (dose: 0.5 mg/kg/injection, schedule: Q01DX009 (ip), vehicle: Klucel (hydroxypropylcellulose) (HPC)) was 159 % of control and the T/C (dose: 1.0 mg/kg/injection, schedule: Q01DX001 (ip), vehicle: carboxymethylcellulose (CMC)) was 103 % of control. For the same compound, the T/C (dose: 1.0 mg/kg/injection, schedule: Q01DX009 (ip), vehicle: Klucel (hydroxypropylcellulose) (HPC)) was 232 % of control, the T/C (dose: 2.0 mg/kg/injection, schedule: Q01DX001 (ip), vehicle: carboxymethylcellulose (CMC)) was 103 % of control and 119 % of control and the T/C (dose: 4.0 mg/kg/injection, schedule: Q01DX001 (ip), vehicle: carboxymethylcellulose (CMC)) was 109 % of control. For the same compound, the T/C (dose: 6.0 mg/kg/injection, schedule: Q01DX009 (ip), vehicle: carboxymethylcellulose (CMC)) was 161 % of control, the T/C (dose: 8.0 mg/kg/injection, schedule: Q01DX001 (ip), vehicle: carboxymethylcellulose (CMC)) was 104 % of control and the T/C (dose: 8.8 mg/kg/injection, schedule: Q01DX009 (ip), vehicle: carboxymethylcellulose (CMC)) was 163 % of control. For the same compound, the T/C (dose: 13.0 mg/kg/injection, schedule: Q01DX009 (ip), vehicle: Klucel (hydroxypropylcellulose) (HPC)) was 120 % of control, the T/C (dose: 13.3 mg/kg/injection, schedule: Q01DX009 (ip), vehicle: carboxymethylcellulose (CMC)) was 121 % of control and the T/C (dose: 15.0 mg/kg/injection, schedule: Q01DX001 (ip), vehicle: carboxymethylcellulose (CMC)) was 153 % of control. The T/C (dose: 20.0 mg/kg/injection, schedule: Q01DX009 (ip), vehicle: carboxymethylcellulose (CMC)) was 110 % of control, the T/C (dose: 30.0 mg/kg/injection, schedule: Q01DX001 (ip), vehicle: carboxymethylcellulose (CMC)) was 104 % of control and 231 % of control and 86 % of control and the T/C (dose: 30.0 mg/kg/injection, schedule: Q01DX009 (ip), vehicle: Klucel (hydroxypropylcellulose) (HPC)) was 90 % of control. For the same compound, the T/C (dose: 30.0 mg/kg/injection, schedule: Q01DX009 (ip), vehicle: carboxymethylcellulose (CMC)) was 100 % of control, the T/C (dose: 45.0 mg/kg/injection, schedule: Q01DX001 (ip), vehicle: carboxymethylcellulose (CMC)) was 155 % of control and the T/C (dose: 60.0 mg/kg/injection, schedule: Q01DX001 (ip), vehicle: carboxymethylcellulose (CMC)) was 109 % of control and 204 % of control. For the same compound, the T/C (dose: 120.0 mg/kg/injection, schedule: Q01DX001 (ip), vehicle: carboxymethylcellulose (CMC)) was 114 % of control.
With c1ccc(SCc2ccncc2)nc1 the T/C (dose: 100.0 mg/kg/injection, schedule: Q01DX001 (ip), vehicle: saline) was 100 % of control, the T/C (dose: 200.0 mg/kg/injection, schedule: Q01DX001 (ip), vehicle: saline) was 92 % of control and the T/C (dose: 400.0 mg/kg/injection, schedule: Q01DX001 (ip), vehicle: saline) was 88 % of control.
With CCC1(O)C(=O)OCc2c1c(Br)c(-c1ccccc1)n(C)c2=O (stereo not given) the T/C (dose: 25.0 mg/kg/injection, schedule: Q01DX001 (ip), vehicle: saline with Tween-80) was 110 % of control, the T/C (dose: 50.0 mg/kg/injection, schedule: Q01DX001 (ip), vehicle: saline with Tween-80) was 102 % of control and the T/C (dose: 200.0 mg/kg/injection, schedule: Q01DX001 (ip), vehicle: saline with Tween-80) was 121 % of control.
For O=C1Cc2ccccc2/C=C\c2ccccc21, the T/C (dose: 100.0 mg/kg/injection, schedule: Q01DX001 (ip), vehicle: Klucel (hydroxypropylcellulose) (HPC)) was 97 % of control, the T/C (dose: 100.0 mg/kg/injection, schedule: Q04DX003 (ip), vehicle: Klucel (hydroxypropylcellulose) (HPC)) was 102 % of control and the T/C (dose: 200.0 mg/kg/injection, schedule: Q01DX001 (ip), vehicle: Klucel (hydroxypropylcellulose) (HPC)) was 100 % of control. The T/C (dose: 200.0 mg/kg/injection, schedule: Q04DX003 (ip), vehicle: Klucel (hydroxypropylcellulose) (HPC)) was 96 % of control, the T/C (dose: 400.0 mg/kg/injection, schedule: Q01DX001 (ip), vehicle: Klucel (hydroxypropylcellulose) (HPC)) was 106 % of control and the T/C (dose: 400.0 mg/kg/injection, schedule: Q04DX003 (ip), vehicle: Klucel (hydroxypropylcellulose) (HPC)) was 102 % of control.
